According to patent US20210354135A1, “SYSTEMS AND METHODS FOR EVALUATING AN ABILITY OF A BLOOD SAMPLE TO COAGULATE, CLOT, AND/OR OCCLUDE” (The Texas A&M University System, priority 2020, published 2021):

Tests used:
[1] = system: recalcified citrated whole blood; experiment: Pressure-sensor readout of clot formation and clotting time in tortuous microfluidic device perfused with recalcified citrated whole blood; type: cell-based, human; details: for clotting time (2.5× pressure increase from baseline): increasing concentration of heparin (0-1 IU/ml) or bivalirudin (0-75 ng/mL), FIGS. 20, 22
Description: Even though microscopic analysis of real-time thrombus formation in the microfluidic device may be useful in labs, the microfluidic device may also be deployed and utilized at the point-of-care. In the interest of utilizing the microfluidic device at the point-of-care, the microfluidic device was connected to a syringe pump, a disposable pressure sensor, and a display monitor. Given that each of these components are already a part of most extracorporeal circuits, these components may be conveniently integrated in broad critical care settings. Additionally, using these components, clot formation may be automatically tracked in real-time by measuring changes in fluid pressure caused by increasing channel occlusion inside the device, as described above with respect to system 10.
It was found during testing of the microfluidic device that as recalcified citrated whole blood was perfused and formed clots inside the microfluidic device, pressure increases typical of the dynamics of clotting in blood vessel in vivo, or in an in vitro hollow channel, was seen, the pressure increases comprising three stages—a steady reaction time, a growth phase, and saturation. […] Next, a clotting time measurement was developed for these pressure readouts to serve as a quantitative end point in lab and clinical settings.
The experimental microfluidic described above was fabricated from PDMS soft lithography to a size that would fit on a standard (e.g., 75 mm×50 mm) microscope slide. The cured PDMS from the master mold was bonded to a […] PDMS-coated glass slide and punched with inlet and outlet 1.5 mm holes. Next, the device was coated with rat tail type I collagen at 100 μg/ml infused into the microfluidic device which was pre-treated with silane. The microfluidic device was incubated at 37° C. for three to four hours and washed with saline solution prior to blood perfusion. At the inlet side of the microfluidic device, a reservoir was created by force-fitting an open slip-tip syringe and fresh blood was stored therein. At the outlet, tubing was connected to an inline, disposable pressure sensor configured to determine pressure change across the microfluidic device. The other end of the pressure sensor was connected to a syringe pump which pulled the stored blood at a mean arteriole wall shear rate of 1200 1/s. Thrombus formation was observed using time-lapse imaging (10×, NA 0.35) of fluorescently labelled fibrinogen (15 μg/ml, Alexa Fluor 647, Invitrogen) and platelets (10 μl/ml Human CD41-PE (clone: VIPL3), Invitrogen) added directly to the blood and incubated at room temperature for approximately eight minutes for whole blood imaging. Fluorescence microscopy of fibrin and platelets was then performed at an interval of approximately 30 seconds.

whole blood = experiment: Fibrin area coverage by fluorescence microscopy in collagen-coated tortuous microfluidic device perfused with whole blood; type: cell-based, human
Description: A microfluidic device was then fabricated and mounted onto a microscope for visualization. The microfluidic device was also connected the to a syringe pump to introduce flow therethrough in a configuration similar, in at least some respects, to that of system 10 shown in FIG. 1. Blood first entered into a large reservoir (4.7 mm wide) and then flow split into four smaller parallel stenosed tortuous channels (200 μm wide); followed by convergence of the flow into an outlet similar to the inlet. The 4-channel design is partially analogous to a vessel network in vivo in which clots may form or detach locally, but the pressure still increases due to the systemic thrombosis. In addition, the total width and length of the device were designed to fit on a standard glass microscope slide for practical ease. Each device contains multiple single microchannel sections that were optimized to create maximum tortuosity (alternating 30° bends, corresponding to TI=3.4), to expose flowing whole blood to varying shear rates due to both stenosis and tortuosity, thus promoting rapid clot formation and occlusion. To enable more rapid cell activation and adhesion, the surface of the microchannels were further functionalized within the device with collagen type I, which is a commonly applied platelet agonist. The microfluidic device was operated at a flowrate of 70 μl/min, leading to a pre-stenosed mean wall shear rate of 1,200 reciprocal seconds (1/s) corresponding to typical arteriolar flow, and a wall shear gradient of 935 reciprocal second-millimeters (1/(s-m)) in the straight region following the pre-stenosed reservoir.
Referring to FIGS. 13, 14, re-calcified citrated whole blood was perfused through the microfluidic device for a maximum of 10 minutes at the 70 μl/min, less than 1 mL of blood was consumed, and the formation of various sized thrombi was detected throughout its entire length using fluorescence imaging 205, 207 shown in FIGS. 13, 14, respectively. […]

Row | Compound | blood flow pressure increase over time ([1]; heparin 0-1 IU/ml added into blood, relative to normal controls, FIG. 19) | clotting time (2.5× pressure increase from baseline) [1] | fibrin area coverage (whole blood; UFH 0-1 IU/mL added to whole blood, fluorescently labelled fibrin, FIGS. 15, 16) | blood flow pressure increase over time ([1]; bivalirudin 0-75 ng/mL added into blood, FIG. 21) | fibrin area coverage (whole blood; bivalirudin 0-100 ng mL−1 added to whole blood, FIGS. 17, 18) | fibrin area coverage (whole blood; bivalirudin at 75 ng/ml in whole blood, FIGS. 17, 18) | blood flow pressure curve over time ([1]; increasing doses of tranexamic acid 0-4 mg/mi in whole blood, FIG. 25) | clotting time ([1]; increasing doses of tranexamic acid 0-4 mg/mi in whole blood, FIG. 26)
1 | unfractionated heparin | the pressure increase shifted relative to normal controls | clotting time decreased as concentration increased | decrease in fibrin area coverage |  |  |  |  | 
2 | bivalirudin |  | clotting time decreased as concentration increased |  | a similar trend | reduced fibrin | nearly complete clearance |  | 
3 | NC[C@H]1CC[C@H](C(=O)O)CC1 [tranexamic acid] |  |  |  |  |  |  | relative shift in pressure curve to the left | decrease in clotting time
